Source: patent publication US9221861B2, “Multivalent [beta]-1-2-linked mannose oligosaccharides as immunostimulatory compounds and uses thereof” (ABO AKADEMI UNIVERSITY, priority 2011, dated 2015)
“Also recorded” adds a separate entry of the source.

Key:
Type in all cases: cell-based, human
[1] = test system: allergen (birch) stimulated PBMC culture; assay: Comparison with prior art adjuvants in suppression of birch allergen-induced IL-4, IL-5 and IL-13 in PBMC (Example 3); conditions: 24 hours; for Mean (SD) percentage of Birch induced cytokine response, IL-5: 15 subjects; for Mean (SD) percentage of Birch induced cytokine response, IL-13: 17 subjects; for Mean (SD) percentage of Birch induced cytokine response, IL-4: 19 subjects
Method: (§1) The human PBMC were isolated from heparinized blood samples with Ficoll (Ficoll-Paque, Amersham Pharmacia Biotech, Sweden) density gradient centrifugation. The PBMC were washed twice with Hanks' balanced salt solution (HBSS) and suspended in RPMI medium supplemented 5% autologous serum, 2 mM L-glutamine (Fluka Biochemica, Germany) and 100 µg/ml gentamycin (Biological Industries, Israel). The cell suspension was diluted in the RPMI-based culture medium to 10^6 cells/ml and applied on 48-well culture plates (Costar, Cambridge, Mass., USA).
The effect of synthetic molecule according to the compound of formula (IV) of the invention coded CM-C8-2010 on the production of IL-4, IL-5 and IL-13, the main Th2-type cytokines promoting allergic inflammation, was studied in an allergen (birch) stimulated PBMC culture of 26 birch allergic patients with allergic rhinitis. The effect was compared to that of 3-deacylated monophosphoryl lipid A (MPL), the non-toxic derivative of lipopolysaccharide of Salmonella minnesota (LPS), and immunostimulatory bacterial DNA sequence (CpG-ODN-1). These molecules have been clinically successfully tested as adjuvants in allergen immunotherapy. Another bacterial DNA sequence (CpG-ODN-2) without immunostimulatory activity was used as a negative control. The PBMC were collected during a strong birch pollen season, were isolated and cultured as described above. Birch whole allergen extract was used at a concentration of 50 µg/ml and CM-C8-2010 at concentrations 200 and 20 µg/ml. CpG-ODN-1 and CpG-ODN-2 were used at a concentration 5 µg/ml and MPL at a concentration 10 µg/ml based on earlier published experiments. The cultures were incubated for 24 hours. Following stimulation, the productions of IL-4, IL-5 and IL-13 were measured with LINCOplex™-kits using Luminex100™ instrumentation. For analysis only the cultures with strong induced cytokine responses were included.

[2] = test system: allergen (birch) stimulated PBMC culture; assay: Effect on allergen (birch) induced IL-5 production in PBMC culture (Example 2); conditions: PBMC of four birch allergic rhinitis patients; birch extract 50 µg/ml; CM-C8-2010 20 µg/ml; 72 hours (FIG. 6)
Method: as §1
Trivalent acetylated monosaccharide coded CM-C4-2011 was used as a negative control. The PBMC were isolated and cultured as described above. Birch whole allergen extract was used at a concentration of 50 µg/ml and CM-C8-2010 at a concentration of 20 µg/ml. The cultures were incubated for 72 hours. Following stimulation, the production of IL-5 was measured with LINCOplex™-kits using Luminex100™ instrumentation.

[3] = test system: peripheral blood mononuclear cells (PBMC); assay: Induction of cytokines by synthetic β-1,2-linked mannooligosaccharide compounds in PBMC (Example 1); conditions: PBMC of three atopic subjects, 72 h, 20 and 200 μg/ml (FIG. 5), LINCOplex/Luminex
Method: as §1
The synthetic oligosaccharides were tested for the production of cytokines IL-4, IL-5, IL-10 and IFN-γ, in peripheral blood mononuclear cells (PBMC) samples of three atopic subjects. The PBMC were stimulated by adding solubilized oligosaccharides in cell culture suspension. The synthetic polyvalent β-1,2-linked oligosaccharides used in this example are a molecule according to the compound of formula (IV) of the invention (coded CM-C8-2010), trivalent monosaccharide (R═H) coded CM-C4-2010 and pentavalent disaccharide (R═O) coded CM-C7-2010. The cytokine responses from PBMC were detected 72 h after beginning of the stimulation by measuring cytokine secretion with high-sensitivity human cytokine LINCOplex™-kits (LINCO Research, St. Charles, Mo., USA) using Luminex^100™ instrumentation. The assays were performed in accordance with the manufacturer's protocol by employing Luminex technology.

[4] = test system: peripheral blood mononuclear cells (PBMC); assay: Induction of cytokines by synthetic oligosaccharide RP-I-82 in PBMC (Example 4); conditions: PBMC of three subjects, 24 hours
Method: as §1
The synthetic oligosaccharide coded RP-I-82 was tested for the production of cytokines IL-4, IL-5, IL-10, IL-13, TNF and IFN-γ, in peripheral blood mononuclear cells (PBMC) samples of three subjects. The PBMC were stimulated by adding solubilized oligosaccharide in cell culture suspension. The synthetic oligovalent 3-1,2-linked oligosaccharide used in this example was a molecule according to the compound of formula (IV) of the invention (coded RP-I-82). A positive control was acid hydrolyzed Candida albicans mannan (CAM). The cytokine responses from PBMC were detected 24 hours after beginning of the stimulation by measuring cytokine secretion with high-sensitivity human cytokine LINCOplex™-kits (LINCO Research, St. Charles, Mo., USA) using Luminex^100™ instrumentation. The assays were performed in accordance with the manufacturer's protocol by employing Luminex technology.

[5] = PBMC of birch allergic patients

SMILES: CC(=O)OCC1O[C@@H](OC2C(OC(C)=O)[C@H](OC(C)=O)C(COC(C)=O)O[C@@H]2OCCn2cc(COCC(COCc3cn(CCO[C@H]4OC(COC(C)=O)[C@@H](OC(C)=O)C(OC(C)=O)C4O[C@@H]4OC(COC(C)=O)[C@@H](OC(C)=O)C(OC(C)=O)C4OC(C)=O)nn3)OCc3cn(CCO[C@H]4OC(COC(C)=O)[C@@H](OC(C)=O)C(OC(C)=O)C4O[C@@H]4OC(COC(C)=O)[C@@H](OC(C)=O)C(OC(C)=O)C4OC(C)=O)nn3)nn2)C(OC(C)=O)C(OC(C)=O)[C@@H]1OC(C)=O (stereo partly drawn) [CM-C8-2010, 1,2,3-tris[1-[(2,3,4,6-tetra-O-acetyl-β-D-mannopyranosyl)-(1→2)-(3,4,6-tri-O-acetyl-α-D-mannopyranosyloxyethyl)]-4-[methyl-1-oxy]triazolyl]propane]
- Mean (SD) percentage of Birch induced cytokine response, IL-5 ([1]; 20 μg/ml): 86.0 (25.9) %
- Mean (SD) percentage of Birch induced cytokine response, IL-13 ([1]; 20 μg/ml): 85.9 (97.5) %
- Mean (SD) percentage of Birch induced cytokine response, IL-4 ([1]; 20 μg/ml): 90.8 (22.7) %
- Mean (SD) percentage of Birch induced cytokine response, IL-5 ([1]; 200 μg/ml): 70.6 (22.6) %
- Mean (SD) percentage of Birch induced cytokine response, IL-13 ([1]; 200 μg/ml): 58.5 (48.0) %
- Mean (SD) percentage of Birch induced cytokine response, IL-4 ([1]; 200 μg/ml): 78.6 (24.3) %
- suppression of birch allergen induced IL-4 response (in words) [1, 5]: more effectively than CpG-ODN-1 or MPL
- suppression of birch allergen induced IL-5 response (in words) [1, 5]: more effectively than CpG-ODN-1 or MPL
- suppression of birch allergen induced IL-13 response (in words) [1, 5]: more effectively than CpG-ODN-1 or MPL
- suppression of birch allergen induced IL-5 response [2]: effectively suppressed
- production of IFN-γ (inducer strength) [3]: strong inducer
- production of IL-10 (inducer strength) [3]: strong inducer
- production of IFN-γ (inducer strength) ([3]; listed as formula (IV)): most active substance
- production of IL-10 (inducer strength) ([3]; listed as formula (IV)): most active substance

SMILES: CC(=O)OC[C@H]1O[C@@H](O[C@@H]2[C@@H](OCCCn3cc(COCC(COCc4cn(CCCO[C@H]5O[C@H](COC(C)=O)[C@@H](OC(C)=O)[C@H](OC(C)=O)[C@@H]5O[C@@H]5O[C@H](COC(C)=O)[C@@H](OC(C)=O)[C@H](OC(C)=O)[C@@H]5OC(C)=O)nn4)OCc4cn(CCCO[C@H]5O[C@H](COC(C)=O)[C@@H](OC(C)=O)[C@H](OC(C)=O)[C@@H]5O[C@@H]5O[C@H](COC(C)=O)[C@@H](OC(C)=O)[C@H](OC(C)=O)[C@@H]5OC(C)=O)nn4)nn3)O[C@H](COC(C)=O)[C@@H](OC(C)=O)[C@@H]2OC(C)=O)[C@@H](OC(C)=O)[C@@H](OC(C)=O)[C@@H]1OC(C)=O (stereo partly drawn) [RP-I-82, 1,2,3-tris[1-[(2,3,4,6-tetra-O-acetyl-β-D-mannopyranosyl)-(1→2)-(3,4,6-tri-O-acetyl-α-D-mannopyranosyloxypropyl)]-4-[methyl-1-oxy]triazolyl]propane]
- Production of cytokines, mean (SD), IFN-γ ([4]; 20 μg/ml): 10 (15) pg/ml
- Production of cytokines, mean (SD), IL-4 ([4]; 20 μg/ml): 2.6 (0.8) pg/ml
- Production of cytokines, mean (SD), IL-5 ([4]; 20 μg/ml): 0.1 (0.2) pg/ml
- Production of cytokines, mean (SD), IL-10 ([4]; 20 μg/ml): 110 (109) pg/ml
- Production of cytokines, mean (SD), IL-13 ([4]; 20 μg/ml): 0.6 (0.2) pg/ml
- Production of cytokines, mean (SD), TNF ([4]; 20 μg/ml): 52 (26) pg/ml
- Production of cytokines, mean (SD), IFN-γ ([4]; 200 μg/ml): 18 (25) pg/ml
- Production of cytokines, mean (SD), IL-4 ([4]; 200 μg/ml): 2.7 (0.2) pg/ml
- Production of cytokines, mean (SD), IL-5 ([4]; 200 μg/ml): 0.2 (0.2) pg/ml
- Production of cytokines, mean (SD), IL-10 ([4]; 200 μg/ml): 843 (253) pg/ml
- Production of cytokines, mean (SD), IL-13 ([4]; 200 μg/ml): 0.5 (0.0) pg/ml
- Production of cytokines, mean (SD), TNF ([4]; 200 μg/ml): 295 (146) pg/ml
- IFN-γ production, inducer strength (in words) [4]: moderate inducer
- IL-4 production (in words) [4]: not seen at all
- IL-5 production (in words) [4]: not seen at all
- IL-10 production, inducer strength (in words) [4]: strong inducer; also recorded: considerably higher than for the control
- IL-13 production (in words) [4]: not seen at all
- TNF production, inducer strength (in words) [4]: strong inducer; also recorded: considerably higher than for the control
- pattern of cytokine induction in comparison to the blank sample (no stimulation) [4]: selective induction
